Here are results for two molecules from patent publication EP4527828A1, “BIPHENYL COMPOUND, PHARMACEUTICAL COMPOSITION, METHOD FOR PREPARING SAME, AND USE THEREOF” (Longivitron (Suzhou) Biotechnology Co., Ltd, priority 2022, dated 2023).

Read-outs that look alike come from different tables or passages of the source.

For orientation: Kd means the concentration at which binding is half-saturated. Read a high Kd as lower affinity. In general, IC50 refers to the midpoint of a concentration-inhibition curve.

The subject of test [1] is mouse liver cancer HEPA1-6. Format: in vivo. The following applies: HEPA1-6, 100 mg/kg ip once, after 27 days of administration. As for the experimental part: (1) 32 8-week-old female C57L mice were selected and divided into 5 cages. HEPA1-6 cells cultured with DMEM + 10% FBS in vitro were washed with PBS and digested with 0.25% trypsin for 3 min. The digestion was terminated with a serum-containing medium, the cells were centrifuged at 2500 rpm for 5 min, the supernatant was discarded, and the cells were resuspended with an appropriate amount of PBS twice. The number of cells was 1.14 × 10^7 cells/mL as counted with a BioRad counting instrument. The cell suspension was placed in an Erlenmeyer flask in an ice bath for later use. The tumor fluid was evenly aspirated using a 1 mL sterile syringe and inoculated 0.2 mL/mouse. After the inoculation was completed, the mice continued to be fed under the initial feeding conditions.
(2) Animal grouping: On the second day after tumor fluid inoculation of C57B/L mice, 32 mice were randomly grouped: 8 mice in a control group, 6 mice in a Compound 4-5 mg/kg group, 6 mice in a Compound 4-10 mg/kg group, 6 mice in a Compound 4-20 mg/kg group, and 6 mice in a positive control drug cyclophosphamide (CTX)-100 mg/kg group. The drug test groups were given the drugs to be tested orally once a day, and the positive control drug CTX was injected intraperitoneally once. The mice were weighed and administered daily.
(3) Drug preparation: The corresponding amounts of the drugs to be tested were weighed according to the final concentrations of the experimental groups. The drugs of the Compound 4-5 mg/kg group, the Compound 4-10 mg/kg group, and the Compound 4-20 mg/kg group were prepared with 5% CMCNa + Tween 80, and CTX was prepared with normal saline. The mice in the control group were given 5% CMCNa solution orally. The dosages were as follows: 0.4 mL/20 g body weight of the animal for intragastric administration, and 0.2 mL/20 g body weight of the animal for intraperitoneal injection.
(4) The animals were sacrificed, and the tumors were separated and weighed. The animals in each group were treated immediately 1 h after administration on the last day and weighed, and the tumor tissue was separated and weighed.

For test [2], the system named is mouse melanoma B16F10. Format: in vivo. The following applies: B16F10, Table 7, 100 mg/kg intraperitoneally once. As for the experimental part: (§1) (1) 43 8-week-old female C57B/L mice were selected and divided into 5 cages. One preserved B16F10 tumor-bearing female C57L mouse was sacrificed by cervical dislocation. 75% alcohol was sprayed on the skin of the mouse in a laminar flow cabinet, and the tumor tissue of the tumor-bearing mouse was separated by sterilized surgical instruments and cut into a sterilized 5 mL homogenizer with ophthalmic scissors. The tumor tissue was slowly milled on ice to form a tumor fluid. The number of cells was 6.85 × 10^7 cells/mL as counted with a BioRad counting instrument. The tumor fluid was placed in an Erlenmeyer flask in an ice bath for later use. The tumor fluid was evenly aspirated using a 1 mL sterile syringe and inoculated 0.2 mL/C57/L mouse. After the inoculation was completed, the mice continued to be fed under the initial feeding conditions.
(§2) (4) The animals were sacrificed, and the tumors were separated and weighed. The animals in each group were treated immediately 1 h after administration on the last day and weighed, and the tumor tissue was weighed.
Animal grouping and administration: On the second day after tumor fluid inoculation of C57B/L mice, tumor-bearing mice were randomly grouped: a control group, a Compound 8-5 mg/kg group, a Compound 8-10 mg/kg group, a Compound 8-20 mg/kg group, and a positive control drug cyclophosphamide CTX-100 mg/kg group. The animals were weighed and administered daily. The drugs to be tested were administered orally daily, and the positive control drug CTX was administered intraperitoneally once. After the experiment was completed, the body weights and tumor weights of the animals were weighed, and the tumor weight inhibition rate (%) was calculated.

Test [3] concerns mouse melanoma B16F10. Format: in vivo. The following applies: B16F10, Table 6, 100 mg/kg ip once, after 15 days of administration. As for the experimental part:
as §1
(2) Animal grouping and administration: On the second day after tumor fluid inoculation of C57B/L mice, 43 mice were randomly grouped: 10 mice in a control group, 8 mice in a Compound 4-20 mg/kg group, 8 mice in a Compound 4-30 mg/kg group, 8 mice in a Compound 4-40 mg/kg group, and 9 mice in a positive control drug cyclophosphamide CTX-100 mg/kg group. The mice were weighed and administered.
(3) Drug preparation: The corresponding amounts of the drugs were weighed according to the final concentrations of the experimental groups. The drugs of the Compound 4-20 mg/kg group and the Compound 4-30 mg/kg group were prepared with 0.25% CMCNa + Tween 80 and administered orally once a day. The drug of Compound 4-40 mg/kg was prepared with normal saline + Tween 80 and administered intraperitoneally. CTX was prepared with normal saline and administered intraperitoneally once. The mice in the control group were given 0.25% CMCNa solution orally.
as §2

Test [4] addresses T1, Human LAG3 protein (Homo sapiens, UniProt P18627).
T1 sequence (P18627 23-525): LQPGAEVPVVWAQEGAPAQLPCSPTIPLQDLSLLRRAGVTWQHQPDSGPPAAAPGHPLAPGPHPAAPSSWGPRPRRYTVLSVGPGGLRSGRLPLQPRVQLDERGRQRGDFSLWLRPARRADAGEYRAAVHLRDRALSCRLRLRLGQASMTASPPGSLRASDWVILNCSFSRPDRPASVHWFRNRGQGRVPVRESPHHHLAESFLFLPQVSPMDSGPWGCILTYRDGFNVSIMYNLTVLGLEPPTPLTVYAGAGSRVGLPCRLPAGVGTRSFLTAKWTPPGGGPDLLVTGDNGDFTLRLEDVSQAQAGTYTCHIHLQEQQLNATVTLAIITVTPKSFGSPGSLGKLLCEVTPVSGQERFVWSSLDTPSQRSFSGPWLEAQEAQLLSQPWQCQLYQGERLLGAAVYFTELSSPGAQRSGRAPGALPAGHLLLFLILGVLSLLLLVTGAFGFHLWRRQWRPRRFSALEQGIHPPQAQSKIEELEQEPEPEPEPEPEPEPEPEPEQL
Put plainly: SPR interaction assay, CM5 chip amino coupling, human LAG3. Format: binding. From the text:
(§3) A surface plasmon is an electromagnetic wave on a metal surface and is generated by the interaction of photons and electrons which are freely vibrated. Surface plasmon resonance (SPR) is an optical phenomenon that occurs on the surfaces of two media, and such a phenomenon can be induced by photons or electrons. When light enters an optically thinner medium from an optically denser medium, the phenomenon of total reflection occurs, and an evanescent wave is generated and enters the optically thinner medium. When the totally reflected evanescent wave meets the plasmon wave on the metal surface, resonance may occur, the energy of the reflected light decreases, and a resonance peak occurs on the energy spectrum of the reflected light. Such a resonance is called surface plasmon resonance. The angle of incidence causing the surface plasmon resonance is called an SPR angle. An SPR biosensor provides a sensitive, non-labeled detection technique for monitoring intermolecular interactions in real time. The sensor detects the change in the SPR angle, and the SPR is related to the refractive index of the metal surface. When an analyte binds to the chip surface, the refractive index of the chip surface changes, thus causing the change in the SPR angle. This is the basic principle for the SPR biosensor to detect intermolecular interactions in real time. During the interaction analysis, the change in the SPR angle is recorded on the sensorgram in real time.
(§4) Through the information query, the theoretical isoelectric point of the LAG3 protein is about 9.82, and the amino coupling method was contemplated to immobilize the protein. Since the main ligands of the LAG3 protein are FGL1 and MHCII proteins, after the LAG3 protein was coupled, the FGL1 protein sampling method was used to verify the protein activity.
(§5) Protein coupling buffer solution: 1.05× PBS-P+; 1.02× PBS-P+
(§6) Interaction buffer solution: 1.0× PBS-P+, 5% DMSO; 1.0× PBS-P+, 2% DMSO
(§7) In this experiment, by using the CM5 chip amino coupling method, the human LAG3 protein was immobilized to the Fc2 or Fc3 channel, and the mouse LAG3 protein was immobilized to the Fc3 or Fc4 channel.
(§8) LAG3 protein coupling conditions were as follows: the concentration was about 25 µg/mL, the system was sodium acetate solution with a pH of 5.5, the chip activation time was 420 s, and the blocking time was 420 s.
(§9) LAG3 protein coupling conditions were as follows: the concentration was about 50 µg/mL, the system was sodium acetate solution with a pH of 4.5, the chip activation time was 420 s, and the blocking time was 420 s.

For test [5], the target named is T2, LAG3/MHCII (Homo sapiens, UniProt P18627).
T2 sequence (P18627 23-450 limits assumed): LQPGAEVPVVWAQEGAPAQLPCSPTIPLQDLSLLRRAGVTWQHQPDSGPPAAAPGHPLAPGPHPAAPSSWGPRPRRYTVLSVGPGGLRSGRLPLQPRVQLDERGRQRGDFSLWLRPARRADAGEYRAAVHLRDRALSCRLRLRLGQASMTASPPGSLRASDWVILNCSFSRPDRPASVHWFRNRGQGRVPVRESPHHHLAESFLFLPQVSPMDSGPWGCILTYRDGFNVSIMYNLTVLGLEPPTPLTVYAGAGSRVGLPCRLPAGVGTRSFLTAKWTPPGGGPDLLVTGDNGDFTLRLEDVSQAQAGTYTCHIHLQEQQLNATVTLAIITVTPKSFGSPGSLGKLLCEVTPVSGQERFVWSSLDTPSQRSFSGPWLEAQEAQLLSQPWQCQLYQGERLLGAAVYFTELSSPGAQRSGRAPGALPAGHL
The test is described as follows: HTRF binding inhibition of LAG3 and its ligand MHCII. Conditions: binding inhibition LAG3/MHCII. Here is the method:
HTRF (Homogeneous time-resolved fluorescence) is based on two techniques, fluorescence resonance energy transfer (FRET) and time-resolved fluorescence (TRF). The detection was carried out using a 384-well plate. 2 µL of a compound to be tested with an appropriate concentration was collected, 4 µL of Tag1-LAG3 protein (with a final concentration of 10 nmol·L^-1) was added, 4 µL of Tag2-MHCII (with a final concentration of 20 nmol·L^-1) was added, and the plate was incubated at room temperature for 15 min. 10 µL of Anti-Tag1-Tb working solution (prepared by adding 25 µL of Anti-Tag1-Tab mother solution to 2475 µL of dilution buffer) was added, 10 µL of Anti-Tag2-XL665 working solution (prepared by adding 25 µL of Tag2-XL665 mother solution to 2475 µL of dilution buffer) was added, and the plate was sealed with a film and incubated at room temperature for 1 h. The detection was carried out using a Perkin Elma Envision instrument.
On the technique in general: TR-FRET usually uses a lanthanide donor and a delayed reading to cut background.

Test [6] deals with T3, Mouse LAG3 protein (Mus musculus, UniProt Q61790).
T3 sequence (Q61790 24-521): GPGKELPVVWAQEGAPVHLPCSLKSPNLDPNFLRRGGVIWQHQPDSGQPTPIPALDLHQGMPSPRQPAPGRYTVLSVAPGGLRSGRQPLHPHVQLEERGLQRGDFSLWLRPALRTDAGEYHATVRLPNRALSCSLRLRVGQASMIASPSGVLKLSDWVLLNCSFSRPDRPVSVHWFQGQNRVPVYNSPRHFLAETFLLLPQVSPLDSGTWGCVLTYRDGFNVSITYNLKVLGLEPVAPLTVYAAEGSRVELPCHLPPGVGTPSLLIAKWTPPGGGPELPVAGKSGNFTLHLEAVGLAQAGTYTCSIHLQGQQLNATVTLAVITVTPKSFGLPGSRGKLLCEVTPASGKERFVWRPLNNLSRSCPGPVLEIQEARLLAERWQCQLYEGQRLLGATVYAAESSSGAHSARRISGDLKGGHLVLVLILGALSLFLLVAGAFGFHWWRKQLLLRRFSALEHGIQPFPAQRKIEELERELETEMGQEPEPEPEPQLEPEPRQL
Put plainly: SPR interaction assay, CM5 chip amino coupling, mouse LAG3. Format: binding.
Excerpt: as §3, §4, §5, §6, §7, §8, §9

Test [7] concerns the target T4, Human FGL1 protein (Homo sapiens, UniProt Q08830).
T4 sequence (Q08830 23-312): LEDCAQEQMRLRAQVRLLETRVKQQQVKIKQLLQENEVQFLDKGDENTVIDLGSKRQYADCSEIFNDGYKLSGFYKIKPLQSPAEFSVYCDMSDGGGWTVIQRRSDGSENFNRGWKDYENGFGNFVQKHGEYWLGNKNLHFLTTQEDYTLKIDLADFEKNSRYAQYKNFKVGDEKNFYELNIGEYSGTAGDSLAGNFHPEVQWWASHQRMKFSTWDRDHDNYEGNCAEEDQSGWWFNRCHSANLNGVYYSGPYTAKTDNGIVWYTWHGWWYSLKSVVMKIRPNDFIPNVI
The test is described as follows: SPR interaction assay, human FGL1. Format: binding. The following applies: SPR.
Excerpt: as §3, §5, §6

With `O=P1(N(CCCl)CCCl)NCCCO1` (centres unmarked) [CTX, cyclophosphamide, reference compound], the Inhibition rate in test [1] is on record as -18.65%; in test [2], 82.93%; in test [3] it was 61.20%. The results for the Tumor weight in test [1], in test [2] and in test [3] were 0.804 ± 0.459 g, 0.30 ± 0.10 g and 1.128 ± 0.394 g, respectively.
With `CCCCCCOc1ccc(C(=O)O)cc1-c1cc(C(=O)NCCCNC(=O)C(F)(F)F)ccc1OCCCCCC` [Compound 9], the “interaction with the human LAG3 protein” value in test [4] was “interacts with the human LAG3 protein”. The Rmax is on record as 129.5 RU in test [4] (ligand Human LAG3 protein), 8.130 E+4 RU in test [6] (ligand Mouse LAG3 protein) and 3.346 E+5 RU in test [7] (ligand FGL1 protein). In addition, in test [4] (ligand Human LAG3 protein, Compound 9 fitted in steady-state mode), the dissociation constant (Kd) is 324 µM. The Note result in test [4] (ligand Human LAG3 protein, bound or not bound) is listed as “Bound”; in test [6] (ligand Mouse LAG3 protein, bound or not bound) it was “Not bound”; in test [7] (ligand FGL1 protein, bound or not bound), “Not bound”. Also, in test [5], the half-maximal inhibitory concentration (IC50) was 5.67 µM. The “interaction with the mouse LAG3 protein” value in test [6] is “does not interact with the mouse LAG3 protein”. The “interaction with the human FGL1 protein” value in test [7] is listed as “does not interact with the human FGL1 protein”.
